# Measured values taken from PMC4312240 (Bioorganic & medicinal chemistry, 2014).
# Tests used:
# [1] = system: HBV; assay: Anti-HBV activity in HepG2 cells; type: cell-based; conditions: for Anti-HBV potency compared with DAPD prodrug 5: comparison in words
# [2] = system: HBV; conditions: in words; cited from earlier work
# [3] = system: HIV; conditions: in words; cited from earlier work
substance,measurement,setting,value
"(2S)-Ethyl 2-(((((2R,4R)-4-(2-amino-6-palmitamido-9H-purin-9-yl)-1,3-dioxolan-2-yl)methoxy)(phenoxy)phosphoryl)amino)propanoate [Compound 10h]",Anti-HBV potency compared with DAPD prodrug 5,[1],in the same range as DAPD prodrug 5
"(2S)-Ethyl 2-(((((2R,4R)-4-(2-amino-6-tetradecanamido-9H-purin-9-yl)-1,3-dioxolan-2-yl)methoxy)(phenoxy)phosphoryl)amino)propanoate [Compound 10g]",Anti-HBV potency compared with DAPD prodrug 5,[1],in the same range as DAPD prodrug 5
"(2S)-ethyl 2-(((((2R,4R)-4-(2-amino-6-hydroxy-9H-purin-9-yl)-1,3-dioxolan-2-yl)methoxy)(phenoxy)phosphoryl)amino)propanoate [Compound 5]",Factor of increase in potency against HBV compared with DAPD,"[1]; ratio of EC50 values, DAPD vs prodrug",40
"(−)-β-D-(2R,4R)-1,3-dioxolane-2-amino-6-aminopropyl purine nucleoside phosphoramidate prodrug [Compound 4]",Activity against HBV,[2],submicromolar
same,Activity against HIV,[3],submicromolar
